Measurements as given in patent US20070049564A1 (Wyeth, priority 2005, published 2007).
Values after ≈ are worked out from the molar mass of the structure shown. Where two headings read alike, the source gives them in different places.

Columns and labels:
E. faecalis GC 2242 = experiment: MIC, broth microdilution; details: Enterococcus faecalis
E. coli GC 2232 = experiment: MIC, broth microdilution; details: Escherichia coli
E. coli GC 2236 = experiment: MIC, broth microdilution; details: Escherichia coli
E. faecalis GC 2265 = experiment: MIC, broth microdilution; details: Enterococcus faecalis
S. aureus GC 2216 = experiment: MIC, broth microdilution; details: Staphylococcus aureus
E. faecalis GC 2267 = experiment: MIC, broth microdilution; details: Enterococcus faecalis
E. faecalis GC 4555 = experiment: MIC, broth microdilution; details: Enterococcus faecalis
S. pneumoniae+ GC 4465 = experiment: MIC, broth microdilution; details: Streptococcus pneumoniae
S. pneumoniae* GC 4465 = experiment: MIC, broth microdilution; details: Streptococcus pneumoniae
E. coli GC 2231 = experiment: MIC, broth microdilution; details: Escherichia coli
P. aeruginosa GC 2214 = experiment: MIC, broth microdilution; details: Pseudomonas aeruginosa
S. aureus GC 4536 = experiment: MIC, broth microdilution; details: Staphylococcus aureus
c. albicans GC 3066 = experiment: MIC, broth microdilution
S. aureus GC 1131 = experiment: MIC, broth microdilution; details: Staphylococcus aureus
E. faecium GC 2243 = experiment: MIC, broth microdilution; details: Enterococcus faecium
Staph. = experiment: Range of MIC for Staph. strains, including MRSA; details: Staphylococcus aureus
E. coli GC 2272 = experiment: MIC, broth microdilution; details: Escherichia coli
S. epidermidis GC 4935 = experiment: MIC, broth microdilution; details: Staphylococcus epidermidis
[1] = read-out: MINIMAL INHIBITORY CONCENTRATION MIC, Human Serum
[2] = read-out: MINIMAL INHIBITORY CONCENTRATION MIC, Mouse Serum
[3] = read-out: MINIMAL INHIBITORY CONCENTRATION MIC, Water

## COC(=O)N(CC(=O)Nc1cc(N(C)C)c2c(c1O)C(=O)C1=C(O)[C@]3(O)C(=O)C(C(N)=O)=C(O)[C@@H](N(C)C)[C@@H]3C[C@@H]1C2)C(C)(C)C [Example 60, methyl 2-{[(5aR,6aS,7S,10aS)-9-(aminocarbonyl)-4,7-bis(dimethylamino)-1,8,10a,11-tetrahydroxy-10,12-dioxo-5,5a,6,6a,7,10,10a,12-octahydrotetracen-2-yl]amino}-2-oxoethyl(tert-butyl)carbamate]
E. faecalis GC 2242; GC2242, read-out: MINIMAL INHIBITORY CONCENTRATION MIC, Human Serum
  MIC: 4 µg/mL (≈ 6.21 µM)
E. faecalis GC 2242; GC2242, read-out: MINIMAL INHIBITORY CONCENTRATION MIC, Mouse Serum
  MIC: 8 µg/mL (≈ 12.4 µM)
E. faecalis GC 2242; GC2242, read-out: MINIMAL INHIBITORY CONCENTRATION MIC, Water
  MIC: 8 µg/mL (≈ 12.4 µM)
E. coli GC 2232; GC2232, read-out: MINIMAL INHIBITORY CONCENTRATION MIC, Human Serum
  MIC: > 64 µg/mL
E. coli GC 2232; GC2232, read-out: MINIMAL INHIBITORY CONCENTRATION MIC, Mouse Serum
  MIC: > 64 µg/mL
E. coli GC 2232; GC2232, read-out: MINIMAL INHIBITORY CONCENTRATION MIC, Water
  MIC: > 64 µg/mL
E. coli GC 2236; GC2236, read-out: MINIMAL INHIBITORY CONCENTRATION MIC, Human Serum
  MIC: > 64 µg/mL
E. coli GC 2236; GC2236, read-out: MINIMAL INHIBITORY CONCENTRATION MIC, Mouse Serum
  MIC: > 64 µg/mL
E. coli GC 2236; GC2236, read-out: MINIMAL INHIBITORY CONCENTRATION MIC, Water
  MIC: > 64 µg/mL
E. faecalis GC 2265; GC2265, read-out: MINIMAL INHIBITORY CONCENTRATION MIC, Human Serum
  MIC: 4 µg/mL (≈ 6.21 µM)
E. faecalis GC 2265; GC2265, read-out: MINIMAL INHIBITORY CONCENTRATION MIC, Mouse Serum
  MIC: 8 µg/mL (≈ 12.4 µM)
E. faecalis GC 2265; GC2265, read-out: MINIMAL INHIBITORY CONCENTRATION MIC, Water
  MIC: 8 µg/mL (≈ 12.4 µM)
S. aureus GC 2216; GC2216, read-out: MINIMAL INHIBITORY CONCENTRATION MIC, Human Serum
  MIC: 2 µg/mL (≈ 3.11 µM)
S. aureus GC 2216; GC2216, read-out: MINIMAL INHIBITORY CONCENTRATION MIC, Mouse Serum
  MIC: 2 µg/mL (≈ 3.11 µM)
S. aureus GC 2216; GC2216, read-out: MINIMAL INHIBITORY CONCENTRATION MIC, Water
  MIC: 4 µg/mL (≈ 6.21 µM)
E. faecalis GC 2267; GC2267, read-out: MINIMAL INHIBITORY CONCENTRATION MIC, Human Serum
  MIC: 4 µg/mL (≈ 6.21 µM)
E. faecalis GC 2267; GC2267, read-out: MINIMAL INHIBITORY CONCENTRATION MIC, Mouse Serum
  MIC: 8 µg/mL (≈ 12.4 µM)
E. faecalis GC 2267; GC2267, read-out: MINIMAL INHIBITORY CONCENTRATION MIC, Water
  MIC: 8 µg/mL (≈ 12.4 µM)
E. faecalis GC 4555; GC4555, read-out: MINIMAL INHIBITORY CONCENTRATION MIC, Human Serum
  MIC: 2 µg/mL (≈ 3.11 µM)
E. faecalis GC 4555; GC4555, read-out: MINIMAL INHIBITORY CONCENTRATION MIC, Mouse Serum
  MIC: 4 µg/mL (≈ 6.21 µM)
E. faecalis GC 4555; GC4555, read-out: MINIMAL INHIBITORY CONCENTRATION MIC, Water
  MIC: 4 µg/mL (≈ 6.21 µM)
S. pneumoniae+ GC 4465; [1]
  MIC: 2 µg/mL (≈ 3.11 µM)
S. pneumoniae+ GC 4465; [2]
  MIC: 4 µg/mL (≈ 6.21 µM)
S. pneumoniae+ GC 4465; [3]
  MIC: 4 µg/mL (≈ 6.21 µM)
S. pneumoniae* GC 4465; [1]
  MIC: 1 µg/mL (≈ 1.55 µM)
S. pneumoniae* GC 4465; [2]
  MIC: 1 µg/mL (≈ 1.55 µM)
S. pneumoniae* GC 4465; [3]
  MIC: 2 µg/mL (≈ 3.11 µM)
E. coli GC 2231; GC2231, read-out: MINIMAL INHIBITORY CONCENTRATION MIC, Human Serum
  MIC: > 64 µg/mL
E. coli GC 2231; GC2231, read-out: MINIMAL INHIBITORY CONCENTRATION MIC, Mouse Serum
  MIC: > 64 µg/mL
E. coli GC 2231; GC2231, read-out: MINIMAL INHIBITORY CONCENTRATION MIC, Water
  MIC: > 64 µg/mL
P. aeruginosa GC 2214; GC2214, read-out: MINIMAL INHIBITORY CONCENTRATION MIC, Human Serum
  MIC: > 64 µg/mL
P. aeruginosa GC 2214; GC2214, read-out: MINIMAL INHIBITORY CONCENTRATION MIC, Mouse Serum
  MIC: > 64 µg/mL
P. aeruginosa GC 2214; GC2214, read-out: MINIMAL INHIBITORY CONCENTRATION MIC, Water
  MIC: > 64 µg/mL
S. aureus GC 4536; GC4536, read-out: MINIMAL INHIBITORY CONCENTRATION MIC, Human Serum
  MIC: 2 µg/mL (≈ 3.11 µM)
S. aureus GC 4536; GC4536, read-out: MINIMAL INHIBITORY CONCENTRATION MIC, Mouse Serum
  MIC: 2 µg/mL (≈ 3.11 µM)
S. aureus GC 4536; GC4536, read-out: MINIMAL INHIBITORY CONCENTRATION MIC, Water
  MIC: 4 µg/mL (≈ 6.21 µM)
c. albicans GC 3066; Candida albicans, GC3066, read-out: MINIMAL INHIBITORY CONCENTRATION MIC
  MIC: > 64 µg/mL
c. albicans GC 3066; Human Serum
  MINIMAL INHIBITORY CONCENTRATION MIC: >64 UG/ML
c. albicans GC 3066; Mouse Serum
  MINIMAL INHIBITORY CONCENTRATION MIC: >64 UG/ML
S. aureus GC 1131; GC1131, read-out: MINIMAL INHIBITORY CONCENTRATION MIC, Human Serum
  MIC: 2 µg/mL (≈ 3.11 µM)
S. aureus GC 1131; GC1131, read-out: MINIMAL INHIBITORY CONCENTRATION MIC, Mouse Serum
  MIC: 2 µg/mL (≈ 3.11 µM)
S. aureus GC 1131; GC1131, read-out: MINIMAL INHIBITORY CONCENTRATION MIC, Water
  MIC: 8 µg/mL (≈ 12.4 µM)
E. faecium GC 2243; GC2243, read-out: MINIMAL INHIBITORY CONCENTRATION MIC, Human Serum
  MIC: 2 µg/mL (≈ 3.11 µM)
E. faecium GC 2243; GC2243, read-out: MINIMAL INHIBITORY CONCENTRATION MIC, Mouse Serum
  MIC: 2 µg/mL (≈ 3.11 µM)
E. faecium GC 2243; GC2243, read-out: MINIMAL INHIBITORY CONCENTRATION MIC, Water
  MIC: 4 µg/mL (≈ 6.21 µM)
Staph.; MRSA, read-out: Range of MIC, Staph (Mouse Serum)
  MIC: 2 to 8 µg/mL (≈ 3.11 to 12.4 µM)
Staph.; MRSA, read-out: Range of MIC, Staph (Water)
  MIC: 4 to 16 µg/mL (≈ 6.21 to 24.9 µM)
Staph.; read-out: Minimum inhibitory concentration (MIC), Staph (Human Serum)
  MIC: 2 to 8 µg/mL (≈ 3.11 to 12.4 µM)
Staph.; read-out: Minimum inhibitory concentration (MIC), Staph (Water)
  MIC: 4 to 16 µg/mL (≈ 6.21 to 24.9 µM)
E. coli GC 2272; GC2272, read-out: MINIMAL INHIBITORY CONCENTRATION MIC, Human Serum
  MIC: 32 µg/mL (≈ 49.7 µM)
E. coli GC 2272; GC2272, read-out: MINIMAL INHIBITORY CONCENTRATION MIC, Mouse Serum
  MIC: 32 µg/mL (≈ 49.7 µM)
E. coli GC 2272; GC2272, read-out: MINIMAL INHIBITORY CONCENTRATION MIC, Water
  MIC: 64 µg/mL (≈ 99.4 µM)
S. epidermidis GC 4935; GC4935, read-out: MINIMAL INHIBITORY CONCENTRATION MIC, Human Serum
  MIC: 8 µg/mL (≈ 12.4 µM)
S. epidermidis GC 4935; GC4935, read-out: MINIMAL INHIBITORY CONCENTRATION MIC, Mouse Serum
  MIC: 8 µg/mL (≈ 12.4 µM)
S. epidermidis GC 4935; GC4935, read-out: MINIMAL INHIBITORY CONCENTRATION MIC, Water
  MIC: 16 µg/mL (≈ 24.9 µM)
